# “And” between values parts separate entries of the source, which are not always exact repeats. Equal entries are not always repeated.
# Experiments:
# CIDP mice = assay: Sciatic nerve electrophysiology (CMAP, NCV), CIDP mouse model; type: in vivo; conditions: for Compound muscle action potential (Mean ± SD) / Nerve conduction velocity (Mean ± SD): CIDP mice; for Electrophysiology, Amplitude / Electrophysiology, Conduction velocity / Electrophysiology, T1 distal / Electrophysiology, T2 proximal: per mouse, listed as hAAT
# Procedure: C57BL/6 mice were received at 8 weeks of age and housed under controlled conditions for the duration of the study. Three groups of 4 animals each were assigned to the following subcutaneous treatments twice daily at 7:00 AM and 7:00 PM for 2 weeks, from 20 to 35 days after the start of disease induction: • Wild type (WT) mice receiving the vehicle, 0.9% NaCl (positive control) • CIDP mice receiving the vehicle, 0.9% NaCl (negative control) • CIDP mice receiving human AAT (AAT), 50 mg/kg per injection
# Disease induction consisted in subcutaneous injection of mouse sciatic nerve homogenate in phosphate buffer saline (PBS)+Freund's adjuvant mixture at 10 mL/kg. For each treatment, 3 different body sites injections were performed. Control mice also received three subcutaneous injections of PBS+Freund's adjuvant at the same 3 different body sites.
# On the first (Day 20) and last (Day 35) day of treatment, the neuromuscular and performance of animals was tested with a rotarod test, grip test and a sensory test using the Von Frey filament test, as well as sciatic nerve electrophysiology test. After the last treatment at Day 35, these tests were repeated, animals were sacrificed and the left sciatic nerve was sampled for histological evaluation of the number and size of […].
# plasma TNFα = assay: Plasma TNFα, CMT mice treated with AAT 180 mg/kg/day sc; type: in vivo, mouse
# Description: Animals were received at 6 weeks of age and housed under controlled conditions for the duration of the study. The study comprised two groups of 8 transgenic mice (CMT mice) each and one group of 8 age matched wild type (WT) C57B16 mice, serving as positive control. Animals were assigned to the following subcutaneous treatments twice daily at 7:00 AM and 7:00 PM for 2 weeks, starting from 8 weeks and up to 10 weeks of age: • Wild-type (WT, no disease) mice receiving vehicle, 0.9% NaCl (positive control) • CMT1A mice receiving vehicle, 0.9% NaCl (negative control) • CMT1A mice receiving AAT at 90 mg/kg per injection (daily dose 180 mg/kg)
# The efficacy parameters included: • neuromuscular performance (rotarod latency to fall and grip strength test), • sciatic nerve electrophysiology (CMAP amplitude and NCV) • cytokine (IL-6 and TNFα), as well as NfL analysis • sciatic nerve histology (number of axons and axonal diameter),
# As supportive information for the mode of action of AAT in CMT, plasma concentration of interleukin 6 (IL-6) and TNFα were measured at Day 1 (8 weeks), Day 15 (10 weeks) and Day 30 (12 weeks). At the same timepoints, plasma levels of the biomarker of nerve damage, NfL were determined.
# Human Schwann cells = assay: TNFα-induced Schwann cell activation, target gene expression by qPCR; type: cell-based; conditions: AAT 50 μM pre-treatment 24 hours, TNFα 10 ng/mL 24 hours
# Procedure: Human Schwann cells (P10351, Innoprot) were seeded in 12 well plates at 120000 cells per well in DMEM. Cells were pre-treated with either buffer (controls) or AAT (50 μM) for 24 hours before stimulation by TNFα (10 ng/mL). The plates were then incubated at 37° C. for 24 hours. The RNA was extracted and selected target gene expression was measured by qPCR.
# The genes evaluated for their regulation included the NF-κB early gene response NFKBIA, as well as the TNFα and TNFR1 genes. Expression of the gene coding for the IL-6 pro-inflammatory cytokine was also evaluated.
# [1] = test system: CMT1A mice B6.Cg-Tg(PMP22)C3Fbas/J; assay: Grip strength, CMT mice treated with AAT 180 mg/kg/day sc; type: in vivo, mouse; conditions: 8 weeks old, CMT + hAAT 180 mg/kg/day SC, individual animal
# [2] = Day 35, AAT 50 mg/kg sc twice daily
substance,measurement,setting,value
alpha1-antitrypsin (AAT) protein,NCV compared to the vehicle treated group,CIDP mice; CIDP + AAT 50 mg/kg sc twice daily,increase
same,CMAP amplitude compared to the CIDP+vehicle treated group,"CIDP mice; CIDP + AAT 50 mg/kg sc twice daily, Day 35",increase
same,Compound muscle action potential (Mean ± SD),CIDP mice; Day 20 (baseline),3.73 ± 0.42 mV
same,Nerve conduction velocity (Mean ± SD),CIDP mice; Day 20 (baseline),13.10 ± 4.49 m/s
same,Compound muscle action potential (Mean ± SD),CIDP mice; [2],4.56 ± 0.76 mV
same,Nerve conduction velocity (Mean ± SD),CIDP mice; [2],16.85 ± 2.43 m/s
same,"Electrophysiology, Amplitude, group MEAN",CIDP mice; Day 20,3.731 mV
same,"Electrophysiology, Conduction velocity, group MEAN",CIDP mice; Day 20,13.098 m/s
same,"Electrophysiology, Amplitude, group MEAN",CIDP mice; Day 35,4.558 mV
same,"Electrophysiology, Conduction velocity, group MEAN",CIDP mice; Day 35,16.851 m/s
same,"Electrophysiology, Amplitude",CIDP mice; Day 20,3.734 mV and 3.562 mV and 3.318 mV and 4.308 mV
same,"Electrophysiology, Conduction velocity",CIDP mice; Day 20,16.096 m/s and 11.057 m/s and 7.775 m/s and 17.463 m/s
same,"Electrophysiology, T1 distal",CIDP mice; Day 20,2.673 ms and 3.177 ms and 2.864 ms and 3.114 ms
same,"Electrophysiology, T2 proximal",CIDP mice; Day 20,3.605 ms and 4.533 ms and 4.793 ms and 3.973 ms
same,"Electrophysiology, Amplitude",CIDP mice; Day 35,3.490 mV and 5.146 mV and 5.068 mV and 4.527 mV
same,"Electrophysiology, Conduction velocity",CIDP mice; Day 35,16.007 m/s and 16.112 m/s and 14.881 m/s and 20.402 m/s
same,"Electrophysiology, T1 distal",CIDP mice; Day 35,4.089 ms and 3.902 ms and 4.177 ms and 3.970 ms
same,"Electrophysiology, T2 proximal",CIDP mice; Day 35,5.026 ms and 4.833 ms and 5.185 ms and 4.705 ms
same,Plasma TNFα (Mean ± SD),"plasma TNFα; 8 weeks old (baseline, Day 1), CMT1A + AAT",9.80 ± 2.25 pg/mL
same,"Plasma TNF-α concentration, group Mean","plasma TNFα; 8 weeks old, CMT + hAAT 180 mg/kg/day SC, 8 animals",6.94 pg/mL
same,Plasma TNF-α concentration,"plasma TNFα; 8 weeks old, CMT + hAAT 180 mg/kg/day SC, individual animal",7.04 pg/mL and 7.89 pg/mL and 7.91 pg/mL and 5.44 pg/mL and 7.90 pg/mL and 5.34 pg/mL and 8.02 pg/mL and 5.95 pg/mL
same,Plasma TNFα (Mean ± SD),"plasma TNFα; 10 weeks old (Day 15, after 2 weeks AAT 90 mg/kg sc twice daily)",6.55 ± 2.11 pg/mL
same,positive effect on TNFα plasma levels,"plasma TNFα; 12 weeks of age, after 2-week treatment-free period",remained significant
same,Plasma TNFα (Mean ± SD),"plasma TNFα; 12 weeks old (Day 30, after 2-week treatment-free period)",11.61 ± 1.00 pg/mL
same,plasma levels of TNFα,"plasma TNFα; CMT mice, AAT 90 mg/kg sc twice a day, P<0.0001",reduced
same,NF-κb pathway transcripts,Human Schwann cells,downregulated
same,expression of genes modulated by TNF-induced oxidative stress response,Human Schwann cells,inhibited
same,"Grip strength, Mean/animal",[1],4.83 NEWTONS and 2.73 NEWTONS and 2.97 NEWTONS and 4.09 NEWTONS and 5.05 NEWTONS and 7.59 NEWTONS and 5.53 NEWTONS and 5.68 NEWTONS
same,"Grip strength, set 1",[1],3.97 NEWTONS and 2.15 NEWTONS and 3.47 NEWTONS and 4.13 NEWTONS and 4.85 NEWTONS and 8.17 NEWTONS and 6.20 NEWTONS and 4.87 NEWTONS
same,"Grip strength, set 2",[1],5.37 NEWTONS and 4.34 NEWTONS and 2.22 NEWTONS and 4.58 NEWTONS and 3.84 NEWTONS and 5.69 NEWTONS and 4.40 NEWTONS and 5.39 NEWTONS
same,"Grip strength, set 3",[1],5.14 NEWTONS and 1.69 NEWTONS and 3.21 NEWTONS and 3.55 NEWTONS and 6.47 NEWTONS and 8.92 NEWTONS and 5.99 NEWTONS and 6.77 NEWTONS

# From US20260028390A1, “ALPHA1-ANTITRYPSIN FOR USE IN THE TREATMENT OF DISEASES OR DISORDERS OF THE NERVOUS SYSTEM SUCH AS CHRONIC INFLAMMATORY DEMYELINATING POLYNEUROPATHY” (Ageronix SA, priority 2022, published 2026)
